Experimental data reported in US11285208B2, “Therapeutic agents for pancreatic cancer” (NATIONAL CANCER CENTER, priority 2010, dated 2022).
Counter-ions that a name gives are not always drawn.

Key:
[1] = test system: progressive/metastatic pancreatic cancer; experiment: Clinical performance of gemcitabine hydrochloride monotherapy in progressive/metastatic pancreatic cancer patients; assay type: in vivo, human
From the text: Thus, the tumor reducing effect and ascites eliminating effect observed in one case of combination therapy were not observed with monotherapy.

[2] = test system: pancreatic cancer; conditions: first-line therapy, foreign phase III clinical trials; cited from earlier work

Nc1ccn([C@@H]2O[C@H](CO)[C@@H](O)C2(F)F)c(=O)n1 [gemcitabine hydrochloride]
Average change in tumor size (increase) ([1]; 3 months after the start of monotherapy, 25 analyzable cases, 95% confidence interval 4.6-67.4%): 36.0%
Ascites elimination ([1]; during the monotherapy of 3 months, 29 analyzable cases): ascites was not eliminated
Efficacy in symptom palliation [2]: 23.8%
Median survival time [2]: 5.7 months
One-year survival rate [2]: 18%
